Key:
Spodoptera littoralis [1] = test: Antifeedant activity against final stadium larval stage of Spodoptera littoralis in compound pretreated glass fibre disks assessed as mass of disks eaten at 10 ppm by choice bioassay; format: functional
Spodoptera littoralis [2] = test: Antifeedant activity against final stadium larval stage of Spodoptera littoralis in compound pretreated glass fibre disks assessed as mass of disks eaten at 1 ppm by choice bioassay; format: functional

C/C=C(\C)C(=O)O[C@H]1C[C@@H](OC(C)=O)[C@@]2(C(=O)OC)CO[C@H]3C(=O)[C@@](C)([C@]45O[C@@]4(C)[C@H]4C[C@@H]5O[C@@H]5OCC[C@@]54OC)[C@@H]4[C@@](OC)(C(=O)OC)OC[C@@]14[C@@H]32
AFI (Spodoptera littoralis [1]): 100%
AFI (Spodoptera littoralis [2]): 29%

C/C=C(\C)C(=O)O[C@H]1C[C@@H](OC(C)=O)[C@@]2(C(=O)OC)CO[C@@H]3[C@@H]2[C@]12CO[C@](OC)(C(=O)OC)[C@H]2[C@](C)([C@]12O[C@@]1(C)[C@H]1C[C@@H]2O[C@@H]2OCC[C@@]21O)[C@H]3O
AFI (Spodoptera littoralis [1]): 46%
AFI (Spodoptera littoralis [2]): 35%

C/C=C(\C)C(=O)O[C@H]1C[C@@H](OC(C)=O)[C@@]2(C(=O)OC)CO[C@H]3[C@@H](O)[C@@](C)([C@]45O[C@@]4(C)[C@H]4C[C@@H]5O[C@@H]5OCC[C@@]54OC)[C@@H]4[C@@](OC)(C(=O)OC)OC[C@@]14[C@@H]32
AFI (Spodoptera littoralis [1]): 95%
AFI (Spodoptera littoralis [2]): 66%

C/C=C(\C)C(=O)O[C@H]1C[C@@H](OC(C)=O)[C@@]2(C(=O)OC)CO[C@H]3C(=O)[C@@](C)([C@]45O[C@@]4(C)[C@H]4C[C@@H]5O[C@@H]5OCC[C@@]54O)[C@@H]4[C@@](OC)(C(=O)OC)OC[C@@]14[C@@H]32
AFI (Spodoptera littoralis [1]): 100%
AFI (Spodoptera littoralis [2]): 26%

C/C=C(\C)C(=O)O[C@H]1C[C@@H](OC(C)=O)[C@@]2(C(=O)OC)CO[C@H]3[C@@H](O)[C@@](C)([C@]45O[C@@]4(C)[C@@H]4C[C@H]5O[C@@H]5OC=C[C@@]54O)[C@H]4[C@]1(CO[C@]4(O)C(=O)OC)[C@@H]32 [AZADIRACHTIN A]
AFI (Spodoptera littoralis [1]): 100%
AFI (Spodoptera littoralis [2]): 99%

CCC(C)C(=O)O[C@H]1C[C@@H](OC(C)=O)[C@@]2(C(=O)OC)CO[C@H]3[C@@H](O)[C@@](C)([C@]45O[C@@]4(C)[C@H]4C[C@@H]5O[C@@H]5OCC[C@@]54O)[C@@H]4[C@@](OC)(C(=O)OC)OC[C@@]14[C@@H]32 (some centres undefined)
AFI (Spodoptera littoralis [1]): 100%
AFI (Spodoptera littoralis [2]): 98%

C/C=C(\C)C(=O)O[C@H]1C[C@@H](OC(C)=O)[C@@]2(C(=O)OC)CO[C@H]3C(=O)[C@@](C)([C@]45O[C@@]4(C)[C@H]4C[C@@H]5OC(=O)OCCC4=O)[C@@H]4[C@@](OC)(C(=O)OC)OC[C@@]14[C@@H]32
AFI (Spodoptera littoralis [1]): 63%
AFI (Spodoptera littoralis [2]): 61%

C/C=C(\C)C(=O)O[C@H]1C[C@@H](O)[C@@]23CO[C@@H]4[C@@H](O)[C@]5(C)[C@@H]([C@]1(COC2=O)[C@@H]43)[C@](O)(C(=O)OC)O[C@@]51[C@H]2C[C@H]3[C@]4(C=CO[C@H]4O2)O[C@]31C
AFI (Spodoptera littoralis [1]): 16%
AFI (Spodoptera littoralis [2]): 22%

C/C=C(\C)C(=O)O[C@H]1C[C@@H](OC(C)=O)[C@@]2(C(=O)OC)CO[C@H]3C(=O)[C@@](C)([C@]45O[C@@]4(C)[C@H]4C[C@@H]5O[C@@H]5OC=C[C@@]54O)[C@H]4[C@]1(CO[C@]4(O)C(=O)OC)[C@@H]32 [7-KETOAZADIRACHTIN]
AFI (Spodoptera littoralis [1]): 23%
AFI (Spodoptera littoralis [2]): 21%

C/C=C(\C)C(=O)O[C@H]1C[C@@H](OC(C)=O)[C@@]2(C(=O)OC)CO[C@@H]3[C@@H]2[C@]12CO[C@](OC)(C(=O)OC)[C@H]2[C@@]1(C)[C@@]32O[C@H]3C[C@@H]([C@@]4(OC)CCO[C@@H]4OC)[C@@](C)(O2)[C@]31O
AFI (Spodoptera littoralis [1]): 31%
AFI (Spodoptera littoralis [2]): 33%

C/C=C(\C)C(=O)O[C@H]1C[C@@H](OC(C)=O)[C@@]2(C(=O)OC)CO[C@H]3[C@H]4O[C@]5(C)[C@H](C6=CCOC6=O)C[C@H](O)[C@]5(O)[C@@]4(C)[C@H]4[C@]1(CO[C@]4(O)C(=O)OC)[C@@H]32
AFI (Spodoptera littoralis [1]): 64%
AFI (Spodoptera littoralis [2]): 41%

C/C=C(\C)C(=O)O[C@H]1C[C@@H](OC(C)=O)[C@@]2(C(=O)OC)CO[C@H]3[C@@H](O)[C@@](C)([C@]45O[C@@]4(C)[C@H]4C[C@@H]5O[C@@H]5OCC[C@@]54O)[C@@H]4[C@@](OC)(C(=O)OC)OC[C@@]14[C@@H]32
AFI (Spodoptera littoralis [1]): 100%
AFI (Spodoptera littoralis [2]): 100%

Reference: ChEMBL document CHEMBL3045980, “Chemistry of insect antifeedants from Azadirachta indica (part 11): Characterisation and structure activity relationships of some novel rearranged azadirachtins” (1991)
